Results: patent US6521641B1, “Male anti-fertility agents” (Allergan, Inc., priority 1998, dated 2003)
Where two headings read alike, the source gives them in different places.

Legend:
Sprague-Dawley rats [1] = test system: Sprague-Dawley rats
Description: (§1) The drug was administered using a graduated syringe and a 20×3 inch animal feeding needle. Drug was given to each animal in a single dose per day.
Animals were weighed on the first day of the study and once per week thereafter, and the body weights recorded. The body weights were used for the dosage calculations. For all the Main Study and Recovery animals, food (Purina Certified Rodent Chow, meal form) was placed into tared glass jars and left in the animal cages. Jars were removed and weighed once weekly. Food was added to the jars when necessary. Food consumption was not recorded for the animals used in the toxicokinetic satellite studies.
(§2) Urine was collected from animals in the Main Study and Recovery groups during week 4 of the treatment period, and from Recovery group animals during week 4 of the recovery period. Urine was analyzed for: blood (hemoglobin and erythrocytes), bilirubin, color, glucose, ketones, leukocytes, microscopic evaluations of any urine sediment, […], pH, protein, specific gravity, transparency, and urobilinogen.
(§3) Animals were euthanized by inhalation of carbon dioxide. A complete necropsy was performed on all Main Study and Recovery group animals that died, or were euthanized due to moribund conditions, or were euthanized on scheduled sacrifice.

male cynomologus monkeys = assay: Preliminary test of AGN 194310 in male cynomologus monkeys; assay type: in vivo, cynomologus monkey; conditions: 5 male cynomologus monkeys, daily dosage of 1.25 mg/kg
Description: Those of skill in the art will also recognize that both rats and monkeys are commonly used and accepted animal models for drug efficacy in humans.

Sprague-Dawley rats [2] = conditions: for epididymis histology: high dose rats
Description: Ninety-eight male and ninety-eight female Sprague-Dawley (Crl:CD®(SD) IGS BR) Charles River, Hollister, Calif. 95023) rats, approximately 8 to 10 weeks old, were used for the study. The rats were divided into the following groups: non-treated control, vehicle control, 0.005 mg/kg/day, 0.015 mg/kg/day and 0.15 mg/kg/day AGN 194310. AGN 194310 has the following chemical structure: [drawing 18]
The AGN 194310 compound was provided as follows: the compound was dissolved in capric/caprylic triglyceride (CCT) at a variety of doses, either 0.001% (v/v) AGN 194310, 0.003% (v/v) AGN 194310, or 0.01% (v/v) AGN 194310.
One hundred ninety-six animals were distributed into thirteen groups as follows: Groups 1 through 5 were Main Study groups. Groups 6-9 were used for Toxicokinetic studies. Groups 10-13 were Main Study Recovery groups.
as §1, §2, §3
The following organs were weighed for necroscopized animals: adrenal glands, ovaries, kidneys, pituitary gland, liver, spleen, heart, testes, and brain. In the case of organ pairs, both organs were weighed together.
The following tissues and organs were isolated, trimmed if necessary, and preserved in 10% buffered formalin for histopathological evaluation: adrenal glands, mammary gland (with skin), aorta, ovaries, bone/bone marrow, pancreas, femur, pituitary gland, tibia, prostate gland, knee joint, salivary glands, parotid, brain, sub-maxillary, cervix sciatic nerve, diaphragm, seminal vesicle, epididymides, skeletal muscle (thigh), eyes, spinal chord (thoracic), spleen, esophagus, sternum, stomach, testes, duodenum, thymus, jejunum, thyroid gland with parathyroids, ileum, any tissues with lesion(s), cecum, tongue, colon, trachea, heart, bladder, kidneys, uterus, liver, ureter, lungs, urethra, lymph nodes (vaginal, cervical, mediastinal, mesenteric).
Target tissues and organs from the Vehicle (control) and high-dose groups were imbedded in paraffin, and tissue sections made. The sections were mounted and stained with hematoxylin and eosin using standard histological techniques; such histopathological evaluation was performed using techniques well known in the art.
In the Recovery dosage groups that were so evaluated, the selected tissues were prepared and evaluated as set forth above.

male Sprague Dawley rats = assay: Reversibility of spermatogenic arrest, oral AGN 194310 for 4 weeks and recovery (Example 3); assay type: in vivo, rat
Description: Groups of male Sprague Dawley rats were treated orally for 4 weeks with either 0, 0.075, or 0.150 mg/kg/day of AGN 194310. Three to six animals from each group were sacrificed after 2 weeks of treatment, 6 animals from each group were sacrificed following 4 weeks of treatment and 6 animals from each group were sacrificed after 18-23 weeks of subsequent recovery after cessation of treatment. Histological and pathological examinations were done of the sacrificed animals, as in Example 1. Additionally, the animals in the 23 week recovery group were mated to normal, untreated female Sprague Dawley rats before being sacrificed to assess the reproductive function.

[3] = Excretion of the drug (separate experiment); assay type: in vivo; conditions: within 2 weeks following treatment
Stability to light = assay type: physicochemical
[4] = male rats of the Recovery group, approximately one month without drug
[5] = oral 0.075 mg/kg, after 18 weeks of recovery
[6] = oral 0.075 mg/kg, after 23 weeks of recovery

CCc1ccc(C2=CC(C)(C)Sc3ccc(C#Cc4ccc(C(=O)O)cc4)cc32)cc1 [AGN 194310, 4-[[4-(4-ethylphenyl)-2,2-dimethyl-(2H)-thiochromen-6-yl]-ethynyl]-benzoic acid]
urinalysis parameters (Sprague-Dawley rats [1]; rat, in vivo, po): no apparent treatment-related effects
treatment-related deaths (Sprague-Dawley rats [1]; rats, oral, 0.005-0.15 mg/kg/day, course of the study): No treatment-related deaths
postmortem pathological examination (Sprague-Dawley rats [1]; rats, oral, end of the treatment period): no noticeable differences
inhibition or arrest of spermatogenesis (male cynomologus monkeys): did not result in inhibition or arrest of spermatogenesis
germinal cell layers lining the seminiferous tubules (Sprague-Dawley rats [2]; high dose males 0.15 mg/kg/day, usual four or more layers in normal tubules): one to two layers of germinal cells
epididymis histology (Sprague-Dawley rats [2]; end of recovery): absence of stored epididymal sperm
epididymis histology (Sprague-Dawley rats [2]; end of treatment): increase in exfoliated cells
reversibility of inhibition (focal increase in germ cell layers in individual tubules) (Sprague-Dawley rats [2]; [4]): reversibility of such inhibition was also evident
spermatogenesis (morphology) (Sprague-Dawley rats [2]; [4]): continuing cessation of spermatogenesis
testicular atrophy (Sprague-Dawley rats [2]; [4]): testicular atrophy was evident
spermatozoa counts in urine (Sprague-Dawley rats [2]; male rats, oral 0.15 mg/kg/day, Recovery group, end of the recovery period): no spermatozoa counts
testes size at postmortem examination (Sprague-Dawley rats [2]; male rats, oral 0.15 mg/kg/day, end of the recovery period): apparent reduction of testes size in all five male rats
testes weight (Sprague-Dawley rats [2]; male rats, oral high dose 0.15 mg/kg/day, end of the treatment and recovery periods): reduction in testes weight
spermatogenic arrest (testes histology) (Sprague-Dawley rats [2]; male rats, oral intermediate dose 0.015 mg/kg/day, end of treatment): No such effect
spermatogenic arrest (testes histology) (Sprague-Dawley rats [2]; male rats, oral low dose 0.005 mg/kg/day, end of treatment): No such effect
testes weight (Sprague-Dawley rats [2]; male rats, oral, other dosage groups (0.005 and 0.015 mg/kg/day)): no statistically significant reduction of testes weight
male rats with spermatogenic arrest (testes histology) (Sprague-Dawley rats [2]; oral high dose 0.15 mg/kg/day, end of treatment): 10/10
rats with inflammation or damage to stromal or vascular elements of the testis (Sprague-Dawley rats [2]; rat, in vivo): None
seminal vesicles (male Sprague Dawley rats; all the treated animals, oral 0.075 mg/kg): normal
round spermatids in the epididymal caput and cauda (male Sprague Dawley rats; oral 0.075 mg/kg): No increase
rats with evidence of spermatogenic arrest (male Sprague Dawley rats; oral 0.075 mg/kg, after 2 and 4 weeks of treatment): All rats
weight of the testes and epididymides (male Sprague Dawley rats; oral 0.075 mg/kg, after 4 weeks of treatment): significantly reduced
mature sperm in the epididymides (male Sprague Dawley rats; [5]): no mature sperm were seen
spermatogenesis (histological analysis) (male Sprague Dawley rats; [5]): active spermatogenesis had resumed
weight of the testes and epididymides (male Sprague Dawley rats; [5]): this weight decrease persisted to some degree
fertility (mating to untreated females) (male Sprague Dawley rats; [6]): All tested animals were fertile
rats completely recovered (normal testes weights, complete spermatogenesis cycle, mature sperm in epididymides) (male Sprague Dawley rats; [6]): 2 of the 3
rats with spermatogenic arrest (male Sprague Dawley rats; oral 0.150 mg/kg, after 2 and 4 weeks of treatment): all rats
rats completely recovered (active and complete spermatogenesis, normal testes weight) (male Sprague Dawley rats; oral 0.150 mg/kg, after 23 weeks of recovery): 4 out of 6
spermatogenesis in the remaining animals (male Sprague Dawley rats; oral 0.150 mg/kg, after 23 weeks of recovery, remaining two animals): incomplete spermatogenesis no mature sperm seen in the epididymides histologically
reproduction of the recovered rats (male Sprague Dawley rats; oral 0.150 mg/kg, after 23 weeks of recovery, the 4 recovered rats): able to reproduce normally
reversibility of the effects of the drug (male Sprague Dawley rats; when administration is halted): fully reversible
drug excreted [3]: 88%
stability to normal light (Stability to light): relatively stable to normal light
